Assay results published in publication PMC11111408, “Concurrent inhibition of oncogenic and wild-type RAS-GTP for cancer therapy” (Nature, 2024).

Test system: PRISM DNA-barcoded human tumour cell lines
Test: PRISM pooled cell viability assay;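 on Area under the curve (AUC): 8 threefold dilutions from 10 µM with 5 days of exposure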;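 on PRISM AUC: 8 threefold dilutions from 10 µM with 5 days of exposure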
Assay type: cell-based
Parameters: Area under the curve (AUC): scale not given here; AUC (PRISM viability) / AUC (PRISM): unit not given beside the values
Conditions: for AUC (PRISM): BRAF class I; for PRISM AUC: KRAS MUT; for AUC (PRISM viability): WT
Experimental: Cells were then lysed in TCL mRNA lysis buffer, and then PCR with reverse transcription was performed. Detection of the barcodes and univariate and multivariate analysis was then performed as previously described. Data analysis is described in the Supplementary Methods. Up-to-date code for our analysis is at the github link: https://github.com/cmap/dockerized_mts.
For every gene with non-silent mutations in at least four cell-lines, we compared the AUC values between cells with and without those mutations using a t-test. This analysis was carried out for: (i) the full dataset; (ii) excluding cell lines with non-silent KRAS mutations; and (iii) excluding cell lines that have either KRAS or NRAS non-silent mutations.

[1] = DND41_HAEMATOPOIETIC_AND_LYMPHOID_TISSUE

`CCn1c(-c2cc(N3CCN(C4CC4)CC3)cnc2[C@H](C)OC)c2c3cc(ccc31)-c1csc(n1)C[C@H](NC(=O)[C@H]1[C@@H]3COC[C@@H]31)C(=O)N1CCC[C@H](N1)C(=O)OCC(C)(C)C2` [RMC-7977] was tested, and the “Area under the curve (AUC)” value (42MGBA_CENTRAL_NERVOUS_SYSTEM) was 0.8215, the “Area under the curve (AUC)” value (253JBV_URINARY_TRACT) was 0.7547 and the “Area under the curve (AUC)” value (639V_URINARY_TRACT) was 0.5786. The “Area under the curve (AUC)” value (647V_URINARY_TRACT) was 0.793, the “Area under the curve (AUC)” value (697_HAEMATOPOIETIC_AND_LYMPHOID_TISSUE) was 0.7402 and the “Area under the curve (AUC)” value (769P_KIDNEY) was 0.9025. The “Area under the curve (AUC)” value (786O_KIDNEY) was 0.9593, the “Area under the curve (AUC)” value (5637_URINARY_TRACT) was 0.5198 and the “Area under the curve (AUC)” value (8305C_THYROID) was 0.8425. For the same compound, the “AUC (PRISM)” value (A101D_SKIN) was 0.8318, the “AUC (PRISM)” value (A375_SKIN) was 0.8721 and the “PRISM AUC” value (A549_LUNG) was 0.4422. The “AUC (PRISM)” value (A1207_CENTRAL_NERVOUS_SYSTEM) was 0.9848, the “AUC (PRISM)” value (A2058_SKIN) was 0.6601 and the “PRISM AUC” value (AGS_STOMACH) was 0.2114. The “PRISM AUC” value (ASPC1_PANCREAS) was 0.2372, the “PRISM AUC” value (CAL62_THYROID) was 0.7922 and the “PRISM AUC” value (CALU1_LUNG) was 0.3345. For the same compound, the “Area under the curve (AUC)” value (CAOV3_OVARY) was 0.8029, the “Area under the curve (AUC)” value (CAPAN2_PANCREAS) was 0.3724 and the “PRISM AUC” value (CAPAN2_PANCREAS) was 0.2599. The “Area under the curve (AUC)” value (CAS1_CENTRAL_NERVOUS_SYSTEM) was 0.8726, the “Area under the curve (AUC)” value (CASKI_CERVIX) was 0.7017 and the “Area under the curve (AUC)” value (CBAGPN_BONE) was 0.5843. The “Area under the curve (AUC)” value (CCFSTTG1_CENTRAL_NERVOUS_SYSTEM) was 0.8445, the “Area under the curve (AUC)” value (CCK81_LARGE_INTESTINE) was 0.8268 and the “Area under the curve (AUC)” value (CCLP1_BILIARY_TRACT) was 0.6816. The “Area under the curve (AUC)” value (CCSW1_BILIARY_TRACT) was 0.6555, the “Area under the curve (AUC)” value (CFPAC1_PANCREAS) was 0.5351 and the “PRISM AUC” value (CFPAC1_PANCREAS) was 0.2506. For the same compound, the “Area under the curve (AUC)” value (CH157MN_CENTRAL_NERVOUS_SYSTEM) was 0.6397, the “Area under the curve (AUC)” value (CHAGOK1_LUNG) was 0.489 and the “Area under the curve (AUC)” value (CHL1_SKIN) was 0.6244. The “Area under the curve (AUC)” value (CHLA06ATRT_SOFT_TISSUE) was 0.5593, the “Area under the curve (AUC)” value (CHLA10_BONE) was 0.7982 and the “Area under the curve (AUC)” value (CHLA15_AUTONOMIC_GANGLIA) was 0.6039. For the same compound, the “Area under the curve (AUC)” value (CHLA57_BONE) was 0.7007, the “Area under the curve (AUC)” value (CHLA200_CENTRAL_NERVOUS_SYSTEM) was 0.6544 and the “Area under the curve (AUC)” value (CJM_SKIN) was 0.5835. For the same compound, the “Area under the curve (AUC)” value (CL11_LARGE_INTESTINE) was 0.4982, the “Area under the curve (AUC)” value (CMLT1_HAEMATOPOIETIC_AND_LYMPHOID_TISSUE) was 0.6333 and the “Area under the curve (AUC)” value (COGAR359_SOFT_TISSUE) was 0.7818. The “Area under the curve (AUC)” value (COGE352_BONE) was 0.9516, the “Area under the curve (AUC)” value (COGN278_AUTONOMIC_GANGLIA) was 0.4846 and the “Area under the curve (AUC)” value (COLO320_LARGE_INTESTINE) was 0.6681. For the same compound, the “Area under the curve (AUC)” value (COLO668_LUNG) was 0.6484, the “PRISM AUC” value (COLO668_LUNG) was 0.815 and the “Area under the curve (AUC)” value (COLO678_LARGE_INTESTINE) was 0.7153. For the same compound, the “Area under the curve (AUC)” value (COLO679_SKIN) was 0.858, the “Area under the curve (AUC)” value (COLO680N_OESOPHAGUS) was 0.6858 and the “Area under the curve (AUC)” value (COLO741_SKIN) was 1. For the same compound, the “Area under the curve (AUC)” value (COLO783_SKIN) was 0.8893, the “Area under the curve (AUC)” value (COLO792_SKIN) was 0.7007 and the “Area under the curve (AUC)” value (COLO800_SKIN) was 0.7125. For the same compound, the “Area under the curve (AUC)” value (CORL23_LUNG) was 0.5921, the “PRISM AUC” value (CORL23_LUNG) was 0.1909 and the “Area under the curve (AUC)” value (CORL88_LUNG) was 0.5624. For the same compound, the “Area under the curve (AUC)” value (CORL105_LUNG) was 0.7085, the “Area under the curve (AUC)” value (CORL279_LUNG) was 0.7248 and the “Area under the curve (AUC)” value (COV318_OVARY) was 0.8633. The “Area under the curve (AUC)” value (COV362_OVARY) was 0.7849, the “Area under the curve (AUC)” value (COV434_OVARY) was 0.99 and the “Area under the curve (AUC)” value (COV644_OVARY) was 0.7771. For the same compound, the “Area under the curve (AUC)” value (CW2_LARGE_INTESTINE) was 0.99, the “Area under the curve (AUC)” value (CW9019_SOFT_TISSUE) was 0.6651 and the “Area under the curve (AUC)” value (DANG_PANCREAS) was 0.3955. The “PRISM AUC” value (DANG_PANCREAS) was 0.2087, the “Area under the curve (AUC)” value (DAOY_CENTRAL_NERVOUS_SYSTEM) was 0.7146 and the “Area under the curve (AUC)” value (DBTRG05MG_CENTRAL_NERVOUS_SYSTEM) was 0.9233. The “Area under the curve (AUC)” value (DEL_HAEMATOPOIETIC_AND_LYMPHOID_TISSUE) was 0.7782, the “Area under the curve (AUC)” value (DETROIT562_UPPER_AERODIGESTIVE_TRACT) was 0.4955 and the “Area under the curve (AUC)” value (DKMG_CENTRAL_NERVOUS_SYSTEM) was 0.9357. The “Area under the curve (AUC)” value (DL_SOFT_TISSUE) was 0.5482, the “Area under the curve (AUC)” value (DMS53_LUNG) was 0.9195 and the “Area under the curve (AUC)” value (DMS79_LUNG) was 0.9708. The “Area under the curve (AUC)” value (DMS273_LUNG) was 0.8299, the “Area under the curve (AUC)” value [1] was 0.662 and the “PRISM AUC” value [1] was 0.4904. The “Area under the curve (AUC)” value (DOHH2_HAEMATOPOIETIC_AND_LYMPHOID_TISSUE) was 0.794, the “Area under the curve (AUC)” value (DOTC24510_CERVIX) was 0.5479 and the “Area under the curve (AUC)” value (DU145_PROSTATE) was 0.7717. For the same compound, the “Area under the curve (AUC)” value (DU4475_BREAST) was 0.7278, the “Area under the curve (AUC)” value (DV90_LUNG) was 0.3742 and the “PRISM AUC” value (DV90_LUNG) was 0.1773. The “Area under the curve (AUC)” value (EB1_HAEMATOPOIETIC_AND_LYMPHOID_TISSUE) was 0.7516, the “Area under the curve (AUC)” value (EBC1_LUNG) was 0.4773 and the “Area under the curve (AUC)” value (ECC2_BILIARY_TRACT) was 0.751. For the same compound, the “Area under the curve (AUC)” value (ECC10_STOMACH) was 0.6145, the “Area under the curve (AUC)” value (ECGI10_OESOPHAGUS) was 0.5375 and the “Area under the curve (AUC)” value (EFE184_ENDOMETRIUM) was 0.7163. The “Area under the curve (AUC)” value (EFM19_BREAST) was 0.9395, the “Area under the curve (AUC)” value (EFM192A_BREAST) was 1 and the “Area under the curve (AUC)” value (EFO21_OVARY) was 0.6416. For the same compound, the “Area under the curve (AUC)” value (EFO27_OVARY) was 0.6995, the “Area under the curve (AUC)” value (EGI1_BILIARY_TRACT) was 0.5258 and the “Area under the curve (AUC)” value (EKVX_LUNG) was 0.7007. For the same compound, the “Area under the curve (AUC)” value (EM2_HAEMATOPOIETIC_AND_LYMPHOID_TISSUE) was 0.5861, the “Area under the curve (AUC)” value (EMTOKA_ENDOMETRIUM) was 0.6769 and the “Area under the curve (AUC)” value (EN_ENDOMETRIUM) was 0.882. For the same compound, the “Area under the curve (AUC)” value (ES2_OVARY) was 0.9145, the “Area under the curve (AUC)” value (ESS1_ENDOMETRIUM) was 0.5647 and the “Area under the curve (AUC)” value (EW8_BONE) was 0.6981. The “Area under the curve (AUC)” value (EWS502_BONE) was 0.6483, the “Area under the curve (AUC)” value (FADU_UPPER_AERODIGESTIVE_TRACT) was 0.6687 and the “Area under the curve (AUC)” value (FLO1_OESOPHAGUS) was 1. For the same compound, the “Area under the curve (AUC)” value (FTC133_THYROID) was 0.5671, the “Area under the curve (AUC)” value (FTC238_THYROID) was 0.9611 and the “Area under the curve (AUC)” value (G292CLONEA141B1) was 0.925. The “Area under the curve (AUC)” value (G292CLONEA141B1_BONE) was 0.8311, the “Area under the curve (AUC)” value (G361_SKIN) was 1 and the “Area under the curve (AUC)” value (G401_SOFT_TISSUE) was 0.9104. The “Area under the curve (AUC)” value (G402_SOFT_TISSUE) was 0.9029, the “Area under the curve (AUC)” value (G415_BILIARY_TRACT) was 0.596 and the “Area under the curve (AUC)” value (GAMG_CENTRAL_NERVOUS_SYSTEM) was 0.6539. For the same compound, the “Area under the curve (AUC)” value (GB1_CENTRAL_NERVOUS_SYSTEM) was 1, the “Area under the curve (AUC)” value (GB2_BILIARY_TRACT) was 0.5045 and the “PRISM AUC” value (GP2D_LARGE_INTESTINE) was 0.4036. The “PRISM AUC” value (GSU_STOMACH) was 0.1903, the “PRISM AUC” value (HCC44_LUNG) was 0.3549 and the “PRISM AUC” value (HCC56_LARGE_INTESTINE) was 0.1735. For the same compound, the “PRISM AUC” value (HCT15_LARGE_INTESTINE) was 0.6069, the “PRISM AUC” value (HCT116_LARGE_INTESTINE) was 0.4206 and the “PRISM AUC” value (HEC1A_ENDOMETRIUM) was 0.5452. For the same compound, the “PRISM AUC” value (HEC1B_ENDOMETRIUM) was 0.557, the “PRISM AUC” value (HEYA8_OVARY) was 0.3651 and the “PRISM AUC” value (HMC18_BREAST) was 0.1236. For the same compound, the “PRISM AUC” value (HPAC_PANCREAS) was 0.2345, the “PRISM AUC” value (HPAFII_PANCREAS) was 0.1832 and the “AUC (PRISM viability)” value (HT29_LARGE_INTESTINE) was 0.9401. For the same compound, the “AUC (PRISM viability)” value (HT55_LARGE_INTESTINE) was 0.5483, the “AUC (PRISM viability)” value (HT144_SKIN) was 0.8437 and the “AUC (PRISM viability)” value (HT_HAEMATOPOIETIC_AND_LYMPHOID_TISSUE) was 0.5864. The “PRISM AUC” value (HUCCT1_BILIARY_TRACT) was 0.2016.
